Reference: patent publication US20260115173A1 (University of Houston System, priority 2022, published 2026)
“Also recorded” adds a separate entry of the source. Like-named read-outs stand apart in the source and are kept apart here.

Tests used:
[1] = system: mice of both sexes; settings: cited from earlier work
[2] = system: male or female rats; settings: cited from earlier work
[3] = system: rats; settings: rat, in vivo; cited from earlier work
[4] = system: female Sprague Dawley rats; assay: Operant alcohol (10%) self-administration, FR2 schedule, 60-min sessions; format: in vivo, rat; settings: for Active lever presses, post-hoc comparison with vehicle / Estimated total alcohol intake, post-hoc comparison with vehicle / Number of head entries, comparison with vehicle / Number of reinforcers earned, post-hoc comparison with vehicle: 0.3, 1.0, 3.0 mg/kg IP vs vehicle, decrease, Tukey's test
Text: (§1) Animals. A total of 10 female Sprague Dawley rats (Charles River, Wilmington, MA) were used for the alcohol self-administration studies. […] These same rats were used in the cFos immunohistochemistry study. Rats were initially housed 3-5 to a cage in polypropylene cages housed in circular towers (Animal Care Systems, Inc, Centennial, CO) located within a temperature- and humidity-controlled vivarium that was maintained on a 12:12 light/dark cycle (lights on at 6 AM). Rats weighed about 250-350 gm at the start of the experiment and were at least 100 days old. Food and water were available ad libitum throughout the study. To facilitate alcohol self-administration rats were exposed to alcohol in vapor chambers (La Jolla Alcohol Research, La Jolla, CA) for 6-weeks prior to operant training using a chronic intermittent alcohol exposure (i.e., alcohol vapors were on for 14-h and off for 10-h, 5 days per week).
Drugs. Alcohol (ethyl alcohol, 190 Proof, USP grade, Koptec, King of Prussia, PA) was diluted to 10% (with RO water, w/v) and made available for consumption via standard operant chambers (described below). MG (Cayman Chemical, Ann Arbor, MI) was prepared in 20% Tween 80 (Sigma Aldrich, St. Louis, MO) in 80% sterile saline (0.9% NaCl). […] Each dose of test drug was administered via intraperitoneal (IP) injection.
Operant self-administration training and testing. Training sessions (60 min) began with the illumination of the house light and, initially, two non-contingent dipper presentations (primes) for 10 sec. The dipper access light was illuminated for the entire length of the dipper presentation time. […] When the rat pressed the active lever, the house light would turn off, dipper would protrude, and the access area light and the triple cue light above both of the levers went off. […] Stable response levels under the FR2 schedule (≤20% variability over 2 consecutive days) under 3 second dipper presentation time were required for the animal to move into the testing phase. Test sessions (60 min) were conducted once a rat met stable lever pressing criteria. Each dose of test drug and vehicle was administered (IP) 30 minutes prior to the test session in a randomized order across rats with at least 4-7 days intervening between dose administrations.
Responses obtained from the test sessions included two measures of appetitive responding (numbers of active lever presses and head entries) and two measures of consummatory responding (numbers of reinforcers earned and estimated amount of alcohol consumed in g/kg). Estimates of the amount of alcohol delivered were derived by multiplying the number of reinforcers earned by the amount of alcohol (g) per delivery (0.1 mL) of the 10% solution and divided by body weight.
Statistical Analysis. The self-administration data were analyzed with ANOVAs to compare the two measures of appetitive responding (numbers of active lever presses and head entries) and the two measures of consummatory responding (numbers of reinforcers earned and estimated total alcohol intake in g/kg).
(§2) Significant main effects were followed by Tukey's multiple comparisons test. Comparisons with p-values less than 0.05 were considered significant and those less than 0.10 were considered a trend towards significance.

[5] = system: female Sprague Dawley rats; assay: Open field test - locomotor activity; format: in vivo, rat; settings: N=4/group; for Distance traveled over 5-min time blocks: 3 mg/kg IP 30 min before 30-min test, vs control; for Total distance traveled over entire 30-min session: 3 mg/kg IP 30 min before test
Text: as §1
Open Field Test-Locomotor Activity. […] Drugs were administered 30 minutes before rats were placed into the open field chambers and distance traveled (cm) was tabulated in 5-min blocks across the 30-minute test.
Distance traveled over time was analyzed using a 4×6 repeated measures ANOVA with time (six 5-min blocks) as the repeating measure. Another ANOVA was conducted that included all three Drug conditions (MG, NTX, and MG+NTX).
as §2

[6] = system: cFos; assay: Immunohistochemistry: cFos activation in brain areas; format: in vivo, rat; settings: 3 mg/kg IP, 90 min after open field test, vs control
Text: as §1

[7] = system: male Sprague Dawley rats; settings: cited from earlier work
[8] = system: male rats; settings: male Sprague Dawley rats, 10-30 mg/kg ip vs 1, 5, 10 mg/kg i.p.; cited from earlier work
[9] = system: mice; settings: i.p., cited from earlier work
[10] = NTX 1 mg/kg; cited from earlier work
[11] = target: T1, delta opioid receptors (Homo sapiens, UniProt P41143); settings: cited from earlier work
T1 sequence (P41143 whole entry): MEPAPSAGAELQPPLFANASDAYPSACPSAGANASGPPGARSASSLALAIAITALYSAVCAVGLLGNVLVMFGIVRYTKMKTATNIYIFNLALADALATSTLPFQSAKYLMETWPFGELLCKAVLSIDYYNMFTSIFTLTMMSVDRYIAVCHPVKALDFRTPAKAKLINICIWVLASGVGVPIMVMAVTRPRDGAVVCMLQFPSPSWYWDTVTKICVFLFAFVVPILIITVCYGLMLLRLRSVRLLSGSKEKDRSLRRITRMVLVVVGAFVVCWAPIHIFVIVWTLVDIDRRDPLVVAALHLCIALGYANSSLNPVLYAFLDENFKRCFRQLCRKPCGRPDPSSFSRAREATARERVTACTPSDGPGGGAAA

[12] = target: T1, delta opioid receptors; settings: cited from earlier work; remark: listed apart in the source
[13] = target: T2, delta opioid receptors (Mus musculus, UniProt P32300); settings: NG108-15 cells; effect blocked by naloxone; cited from earlier work
T2 construct: endogenous in cells; host or cells: NG108-15
T2 sequence (P32300 whole entry): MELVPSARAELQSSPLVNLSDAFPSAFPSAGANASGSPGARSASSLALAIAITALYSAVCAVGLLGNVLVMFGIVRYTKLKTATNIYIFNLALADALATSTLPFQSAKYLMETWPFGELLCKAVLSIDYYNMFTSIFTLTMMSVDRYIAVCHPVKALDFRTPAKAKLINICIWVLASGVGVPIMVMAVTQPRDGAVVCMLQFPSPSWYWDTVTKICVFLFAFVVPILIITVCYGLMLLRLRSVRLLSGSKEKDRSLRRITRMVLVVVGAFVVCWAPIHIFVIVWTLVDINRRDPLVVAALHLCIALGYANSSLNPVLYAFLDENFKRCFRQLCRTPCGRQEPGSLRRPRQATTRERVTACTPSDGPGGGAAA

[14] = 15-30 mg/kg; cited from earlier work
[15] = 15-30 mg/kg; cited from earlier work; remark: listed apart in the source
[16] = system: rats; settings: cited from earlier work
[17] = system: female Sprague Dawley rats; settings: 10 mg/kg (highest dose), progressive ratio schedule; cited from earlier work
[18] = system: cFos; settings: 2 mg/kg, i.p.; cited from earlier work

In the case of `CC[C@@H]1CN2CC[C@@]3(O)C(=Nc4cccc(OC)c43)[C@@H]2C[C@@H]1/C(=C\OC)C(=O)OC` [7-HMG, 7-hydroxymitragynine, reference compound], the Alcohol consumption ([1]; dose not given) is given as “significantly reduced alcohol consumption as did 7-HMG”, the “Abuse liability in ICSS” value ([2]; rat, in vivo) is given as “abuse liability was not shown in ICSS” and the Self-administration by rats [3] is given as “readily self-administered by rats”.

In the case of `CC[C@@H]1CN2CCc3c([nH]c4cccc(OC)c34)[C@@H]2C[C@@H]1/C(=C\OC)C(=O)OC` [MG, mitragynine], the “Active lever presses, post-hoc comparison with vehicle” value [4] is reported as “significant differences in active lever presses between vehicle and 1.0 (P<0.01) and 3.0 mg/kg (P<0.0001)”, the “Estimated total alcohol intake, post-hoc comparison with vehicle” value [4] is reported as “significant differences between vehicle and 1.0 (P<0.01) and 3.0 mg/kg (P<0.001)” and the “Number of head entries, comparison with vehicle” value [4] is reported as “significant differences between vehicle and 1.0 (P<0.01) and 3.0 mg/kg (P<0.01)”. The “Number of reinforcers earned, post-hoc comparison with vehicle” value [4] was “significant differences between vehicle compared to 1.0 (P<0.05) and 3.0 mg/kg (P<0.0001)”, the “All alcohol self-administration measures (lever presses, head entries, reinforcers, alcohol consumed)” value ([4]; 0.3-3.0 mg/kg IP) was “All measures were significantly decreased” and the “Alcohol self-administration overall, relative efficacy of drug conditions” value ([4]; 0.3-3.0 mg/kg IP, combination vs single drugs) was “more significant effects on all four measures of alcohol self-administration than NTX”. The “Active lever presses, direct comparison between drug conditions” value ([4]; MG vs NTX vs MG+NTX at equal doses, 3x4 ANOVA, post-hoc) was “trend for a greater effect of MG on active lever presses at the 3 mg/kg dose”, the “Distance traveled over 5-min time blocks” value [5] was “tend to increase locomotor activity” and the “Total distance traveled over entire 30-min session” value [5] was “did not differ between groups”. For the same molecule, the “Number of cFos positive neurons in dorsal striatum” value [6] was “did not differ from the control group”, the Alcohol consumption ([1]; 30 and 100 mg/kg, i.p.) was “significantly reduced alcohol consumption” and the Heroin self-administration ([7]; 3.0 mg/kg) was “decreased heroin self-administration”. For the same molecule, the “Responding when substituted for heroin” value ([7]; 0.03-3.0 mg/kg) was “did not maintain responding above saline levels”, the Locomotor activity [8] was “higher doses (10-30 mg/kg, ip) of MG but not lower doses (1, 5, 10 mg/kg, i.p.) increase locomotor activity” and the Spontaneous locomotor activity ([9]; 5-30 mg/kg) was “no effect on spontaneous locomotor activity”. The Activity ([9]; male mice, 5, 10, 15 mg/kg) was “significant decrease in activity”, the “Decrease of schedule-controlled responding by MG in presence of NTX” value [10] was “did not block MG's ability to decrease schedule-controlled responding” and the Binding [11] was “very low binding to delta opioid receptors”. The Activity at receptor [12] was “has activity at delta opioid receptors”, the “Inhibition of forskolin-stimulated cAMP” value [13] was “inhibits forskolin-stimulated CAMP in a concentration manner” and the Place conditioning [14] was “induce place conditioning”. The “Substitution for morphine in drug discrimination tests” value [15] was “partially substitute for morphine”, the “Rewarding effect in ICSS” value ([2]; 3.2-56 mg/kg) was “did not find evidence that MG (3.2-56 mg/kg) was rewarding” and the “Self-administration when substituted for morphine” value ([16]; broad range of doses, rats trained to self-administer (i.v.) morphine) was “did not support self-administration”. The “i.v. morphine self-administration after prior exposure” value ([16]; prior exposure) was “decreases i.v. morphine self-administration”.

With `O=C1CC[C@@]2(O)[C@H]3Cc4ccc(O)c5c4[C@@]2(CCN3CC2CC2)[C@H]1O5` [NTX, naltrexone, reference compound] the “Active lever presses, post-hoc comparison with vehicle” value [4] was “significant differences in active lever presses between vehicle and 1.0 (P<0.05) and 3.0 mg/kg (P<0.05)”, the “Estimated total alcohol intake, post-hoc comparison with vehicle” value [4] was “significant differences between vehicle and 1.0 (P<0.05) and 3.0 mg/kg (P<0.05)” and the “Number of head entries, comparison with vehicle” value [4] was “trend towards a main effect for Dose”. For the same molecule, the “Number of reinforcers earned, post-hoc comparison with vehicle” value [4] was “significant differences between vehicle compared to 1.0 (P<0.05) and 3.0 mg/kg (P<0.05)”, the “All alcohol self-administration measures (lever presses, head entries, reinforcers, alcohol consumed)” value ([4]; 0.3-3.0 mg/kg IP) was “All measures were significantly decreased by naltrexone except for head entries that showed a trend towards significance” and the “Distance traveled over 5-min time blocks” value [5] was “tend to increase locomotor activity”. For the same molecule, the “Total distance traveled over entire 30-min session” value [5] was “did not differ between groups”, the “Number of cFos positive neurons in dorsal striatum” value [6] was “did not differ from the control group” and the “Number of cFos positive neurons in nucleus accumbens (NAC)” value [6] was “significant difference between control and NTX (P=0.002); also recorded: increased cFos levels to a similar degree to that of MG and NTX combined”. For the same molecule, the “Active lever presses, reinforcers earned, head entries” value [17] was “decreased active lever presses, reinforcers earned but not head entries” and the cFos expression [18] was “increases cFos expression in several brain areas including the NAC”.
